Laboratory results reported in patent US10745731B2, “Recombinant production method” (Hoffmann-La Roche Inc., priority 2015, dated 2020).
Where two headings read alike, the source gives them in different places.

Experiments:
HEK293F cells [1] = test: Transient gene expression in HEK293F cells: cell specific productivity of the expressed antibody; type: cell-based, human; conditions: for specific productivity after 96 hours: none 2.01; for activity at 0.015 µM: 15 nM; for Mean cell specific productivity: untreated 1.71; for TGE enhancement after BAY11-7082 treatment compared to the corresponding single treatment: BAY11-7082 added 24 hours after stimulation
Experimental: HEK293F cells were cultivated in F17 medium (Life Technologies) in shaker flasks at 36.5° C., 7.0% CO2 and 80% humidity in a shaker incubator (Kuhner, Mytron). Cells were split every three to four days and were cultivated no longer than five weeks. To avoid overgrowth and to keep them in the exponential phase of growth, viable cell densities (VCD) never exceeded 60*10^5 cells/mL.
(§1) Transient gene expression is a 5-7 days lasting procedure. The standard operating procedure of this expression system is applicable to shaker flasks with various volumes of cell culture ranging from 80 mL to 2 L. First, half of the cell culture volume is seeded at a viable cell density (VCD) of 8*10^5 cells/mL. After two days of cultivation, cells are split to a VCD of about 12*10^5 cells/mL. On the next day, cells are transfected with a polyethylene imine (PEI)-based transfection reagent at a VCD between 20*10^5 cells/mL and 25*10^5 cells/mL. 3 hours after transfection, the production enhancer (if any) is added. 24 h after transfection, a feeding solution and a glucose bolus is supplemented to avoid the limitation of nutrients. Depending on cell viability, which should not decrease below 50%, the supernatant is harvested five to seven days post transfection and subjected to antibody purification.
(§2) To compare transient gene expression rates always the same plasmids encoding for one distinct antibody were co-transfected.
(§3) To co-transfect two plasmids equimolarily, the ratio of the base pair number of one plasmid to the total base pair number was calculated and multiplied with the total amount of DNA (0.5 mg/L). Plasmid one has a size of 10530 bp and plasmid two has a size of 7184 bp and were solved in water to a final concentration of 1 mg/mL. For transfection of one liter cell culture, 297 μL of plasmid one and 203 μl of plasmid two were dissolved in 40 mL phosphate buffered saline (PBS) at room temperature. 1.25 mL JetPEI® solution was added and the solution was mixed well. After incubation for 10-15 min., the mixture was added to the cells. The cells were transfected in a batch containing the whole cell culture necessary for every experiment to avoid variance arising from different transfection efficiencies.
(§4) 80 mL of the transfected cell culture batch was added to a 125 ml shaker flask. For every experiment, two or three 125 mL shaker flasks were used as biological replicates and treated the same way. Three hours after transfection, cells were split into 125 mL shaker flasks and the cellular treatments with small molecules or ligands were started. Basal protein expression was determined by untreated control samples. To compare samples with the standard operating procedure, cells were also treated with VPA to a final concentration of 4 mM or 3 mM. VPA and its analogues were dissolved in double distilled water. […] Tumor necrosis factor (TNF) alpha was reconstituted with PBS supplemented with 0.1% BSA. Flagellin was dissolved in sterile double distilled water. The applied molecules were not added to the cultivation directly, but diluted in 16 mL medium pre-warmed to 36.5° C. and added to the cultivation thereafter.
(§5) 24 h after transfection a feeding solution at 36.5° C. and 3 mg/mL glucose were added to the cultivation.
(§6) To determine cell viability and viable cell density (VCD) 1 mL cultivation medium (cell suspension) was transferred into a Cedex low fouling sample cup. The cup was placed into a Vicell instrument (Beckman Coulter). The instrument mixes cells with trypan blue to stain dead cells. After analysis of 50 images VCD was calculated and viability was determined by calculation of the percentage of viable cell number in relation to the total cell number.
(§7) Total concentration of the transiently expressed antibody was determined by a turbidimetric test. One mL cell suspension was transferred into an Eppendorf cup and centrifuged for 10 min. at 10,000 rpm (9,300 g).

HDAC [2] = conditions: cited from earlier work
HEK293F cells [3] = test: Transient gene expression in HEK293F cells: IgG concentration / titer (turbidimetric test); type: cell-based, human; conditions: none=100, N=1, FIG. 7
Experimental: as §1, §2, §3, §4, §5
as §7, with “g). The supernatant was transferred into a new cup and subjected to Cobas Integra 400 plus (Roche) analysis. With comparison to internal standard the absolute concentration was calculated.” for “g).”

HEK293F cells [4] = type: cell-based; conditions: in words
Experimental: as §6

HDAC [5] = test: in situ HDAC activity fluorimetric assay in HEK293F cells; type: cell-based, human; conditions: for HDAC inhibition: yes/no, summary table
Experimental: HDAC activity was determined by the in situ HDAC activity fluorimetric assay kit (Biovision) according to the manufacturer's instructions. HEK293F cells were suspended in F17 medium (Life Technologies) to a cell density of 5*10^5 cells/mL. One hundred micro liter culture was pipetted per well into a black ELISA plate. The plate was centrifuged at 1000 g for 5 min. The supernatant was discarded and the cells were resuspended in a reaction mix containing F17 medium, 1% HDAC substrate and the molecule tested towards HDAC inhibitory activity. 10 μM Trichostatin A was used as a positive control and the basal HDAC activity was determined by re-suspending the cells in F17 medium with 1% HDAC substrate. Furthermore, cells were resuspended in F17 medium without HDAC substrate as a background control. The HDAC activity assay was performed in triplicates for every sample as well as every control. The 96-well plate was incubated at 36.5° C., 80% humidity and 7% CO2 for one hour. During this time, the active HDACs deacetylate the HDAC substrate what releases the quenched fluorescent signal of the substrate. After incubation the fluorescent signal was analyzed by the infinite fluorescence plate reader (TECAN). The fluorescence signal of the samples and controls was normalized by subtracting the fluorescence signal of the background control. It is assumed that the fluorescent signal arising from deacetylation of the substrate directly correlates with HDAC activity.

[6] = description from the literature
[7] = 50 ng/mL, none=100, N=2, FIG. 5

For Cc1ccc(S(=O)(=O)/C=C/C#N)cc1 [BAY 11-7082, BAY11-7082], the “specific productivity after 96 hours” value (HEK293F cells [1]; 1 μM alone, N=3) was 2.21 pg/cell/day, the “specific productivity after 96 hours” value (HEK293F cells [1]; 5 μM alone, N=3) was 2.30 pg/cell/day and the “specific productivity after 96 hours” value (HEK293F cells [1]; 15 μM alone, N=3) was 2.27 pg/cell/day. For the same molecule, the “duration of the effect” value (HEK293F cells [1]; NFκB (IκB kinase) inhibition in transfected HEK293F cells) was “about 4 days”.

O=C(/C=C/c1cccc(S(=O)(=O)Nc2ccccc2)c1)NO [Belinostat] gave an activity at 1 µM (HEK293F cells [1]; Homo sapiens, HEK293F, employed concentration 1 μM, none=100, N=2, FIG. 2B, read-out: relative cell specific productivity) of 115%.

In the case of CCCCOc1ccc(CC(=O)NO)cc1 [Bufexamac], the activity at 10 µM (HEK293F cells [1]; Homo sapiens, HEK293F, employed concentration 10 μM, none=100, N=1, FIG. 2B, read-out: relative cell specific productivity) is listed as 94% and the “HDAC class / isoform selectivity” value (HDAC [2]; [6]) is listed as “selective class IIb HDAC inhibitor”.

For Nc1ccccc1NC(=O)c1ccc(CNC(=O)OCc2cccnc2)cc1 [Entinostat], the activity at 0.3 µM (HEK293F cells [1]; Homo sapiens, HEK293F, employed concentration 300 nM, none=100, N=2, FIG. 2B, read-out: relative cell specific productivity) is given as 108% and the “HDAC class / isoform selectivity” value (HDAC [2]; [6]) is given as “class I HDAC inhibitor with additional inhibitory activity to class IIa member HDAC 9”.

For Nc1ccccc1NC(=O)c1ccc(CNc2nccc(-c3cccnc3)n2)cc1 [Mocetinostat], the activity at 2 µM (HEK293F cells [1]; Homo sapiens, HEK293F, employed concentration 2 μM, none=100, N=2, FIG. 2B, read-out: relative cell specific productivity) is given as 135% and the “HDAC class / isoform selectivity” value (HDAC [2]; [6]) is given as “lowest IC50 values for HDAC 1 and 2 and modest inhibitory activity against HDAC 3 and HDAC 11”.

For COc1ccc(Cn2ccc3ccc(C(=O)NO)cc32)cc1 [PCI34051], the “HDAC class / isoform selectivity” value (HDAC [2]; [6]) is given as “HDAC 8-specific inhibitor” and the “relative IgG concentration” value (HEK293F cells [3]; 5 μM) is given as 99%.

Work on CCCCCCCCCCCCCC(=O)O[C@@H]1[C@@H](C)[C@@]2(O)[C@@H](C=C(CO)C[C@]3(O)C(=O)C(C)=C[C@@H]23)[C@@H]2C(C)(C)[C@]12OC(C)=O [PMA, phorbol myristate acetate] yielded an activity at 0.1 µM (HEK293F cells [1]; Homo sapiens, HEK293F, 100 nM, none=100, N=2, FIG. 5, read-out: relative cell specific productivity) of 149%.

For Nc1cc(F)ccc1NC(=O)/C=C/c1cnn(C/C=C/c2ccccc2)c1 [RGFP966], the “HDAC class / isoform selectivity” value (HDAC [2]; [6]) is given as “specific HDAC 3 inhibitor” and the “relative IgG concentration” value (HEK293F cells [3]; 1 μM) is given as 103%.

In the case of C/C=C1\NC(=O)[C@H]2CSSCC/C=C/[C@H](CC(=O)N[C@H](C(C)C)C(=O)N2)OC(=O)[C@H](C(C)C)NC1=O [Romidepsin], the activity at 0.015 µM (HEK293F cells [1]; Homo sapiens, HEK293F, none=100, N=3, FIG. 8A, read-out: relative cell specific productivity) is reported as 203%, the activity at 0.015 µM (HEK293F cells [1]; Homo sapiens, HEK293F, none=100, N=3, FIG. 9A, read-out: relative cell specific productivity) is reported as 203% and the toxicity (HEK293F cells [4]) is reported as “mild toxicity”.

For O=C(NCC1(c2nc(-c3ccccc3)cs2)CCOCC1)c1cccc(-c2noc(C(F)(F)F)n2)c1 [TMP269], the “relative cell specific productivity” value (HEK293F cells [1]; employed concentration 15 μM, none=100, N=2, FIG. 2B) is listed as 99% and the “HDAC class / isoform selectivity” value (HDAC [2]; [6]) is listed as “preference to class IIa HDACs 4, 5, 7, and 9”.

CC(/C=C/C(=O)NO)=C\[C@@H](C)C(=O)c1ccc(N(C)C)cc1 [Trichostatin A] gave an HDACi (HDAC [5]) of 99%.

In the case of CCC(=O)CCCCC[C@@H]1NC(=O)[C@H]2CCCCN2C(=O)[C@H]([C@@H](C)CC)NC(=O)[C@H](Cc2cn(OC)c3ccccc23)NC1=O [apicidin, Apicidin], the “relative IgG concentration” value (HEK293F cells [3]; 200 nM) is reported as 182%.

With C=C(C)[C@@H]1CC[C@]2(C(=O)O)CC[C@]3(C)[C@H](CC[C@@H]4[C@@]5(C)CC[C@H](O)C(C)(C)[C@@H]5CC[C@]43C)[C@@H]12 [betulinic acid] the activity at 10 µM (HEK293F cells [1]; Homo sapiens, HEK293F, 10 μM, none=100, N=2, FIG. 5, read-out: relative cell specific productivity) was 121%.

In the case of Cc1ccc(NC(=O)CCCCCC(=O)Nc2ccccc2N)cc1 [pimelic diphenylamide 106], the activity at 20 µM (HEK293F cells [1]; Homo sapiens, HEK293F, 20 μM, transfected control=100, N=3, FIG. 3B, read-out: relative cell specific productivity) is reported as 171%, the activity at 20 µM (HEK293F cells [1]; Homo sapiens, HEK293F, employed concentration 20 μM, none=100, N=2, FIG. 2B, read-out: relative cell specific productivity) is reported as 160% and the “Mean cell specific productivity” value (HEK293F cells [1]; conc. 20 μM) is reported as 5.4 (20 μM) pg/cell/24 h. The HDAC selectivity (HDAC [2]; HDAC classes, summary table) was “Class I”, the “HDAC class / isoform selectivity” value (HDAC [2]; [6]) was “class I HDAC inhibitor with highest affinity towards HDAC 1 and 3, high affinity towards HDAC 2 and modest affinity towards HDAC 8” and the HDACi (HDAC [5]; 20 μM, N=3, FIG. 3A) was 22.6%. The HDAC inhibition (HDAC [5]) was “yes”.

With CCC(C)C(CC)C(N)=O (centres unmarked) [valnoctamide] the TGE enhancement (HEK293F cells [1]; 2 mM, in words) was “Weak TGE enhancement”, the activity at 3000 µM (HEK293F cells [1]; Homo sapiens, HEK293F, 3 mM, transfected control=100, N=3, FIG. 3B, read-out: relative cell specific productivity) was 122% and the activity at 2000 µM (HEK293F cells [1]; Homo sapiens, HEK293F, employed concentration 2 mM, none=100, N=2, FIG. 4, read-out: relative cell specific productivity) was 133%. For the same molecule, the activity at 3000 µM (HEK293F cells [1]; Homo sapiens, HEK293F, employed concentration 3 mM, none=100, N=2, FIG. 4, read-out: relative cell specific productivity) was 125%, the “Mean cell specific productivity” value (HEK293F cells [1]; conc. 3 mM) was 1.71 (3 mM) pg/cell/24 h and the “Effect on titer/SPR” value (HEK293F cells [1]; summary table, in words) was “weak”. The HDACi (HDAC [5]; 3 mM, N=3, FIG. 3A) was 11.1% and the HDAC inhibition (HDAC [5]) was “no”.

For CCC(C)C(CC)C(=O)O (centres unmarked) [valnoctic acid], the HDAC inhibitory activity (HDAC [2]; [6]) is given as “weak HDAC inhibitory activity”.

In the case of “EGF: epidermal growth factor, NFκB activator”, the “specific productivity after 96 hours” value (HEK293F cells [1]; 20 ng/mL, single treatment, N=3) is reported as 2.56 pg/cell/day, the “relative cell specific productivity” value (HEK293F cells [1]; [7]) is reported as 173% and the “TGE enhancement after BAY11-7082 treatment compared to the corresponding single treatment” value (HEK293F cells [1]) is reported as “significantly reduced”.

With TNFalpha the “relative cell specific productivity” value (HEK293F cells [1]; [7]) was 139%, the “specific productivity after 96 hours” value (HEK293F cells [1]; 50 ng/mL, single treatment, N=3) was 2.66 pg/cell/day and the “relative cell specific productivity” value (HEK293F cells [1]; 50 ng/mL, single treatment, none=100, N=3) was 157%. The “TGE enhancement after BAY11-7082 treatment compared to the corresponding single treatment” value (HEK293F cells [1]) was “significantly reduced”.
